Measured values from PubChem BioAssay (NCI).
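GI50 = concentration required for 50% inhibition of growth. TGI: concentration producing complete growth inhibition.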

Key:
Experiment in all cases: DTP human tumour cell line panel, 384-well format
CAKI-1 renal = test system: CAKI-1 renal
SNB-19 CNS = test system: SNB-19 CNS
OVCAR-8 ovarian = test system: OVCAR-8 ovarian
SK-MEL-5 melanoma = test system: SK-MEL-5 melanoma
RPMI-8226 leukemia = test system: RPMI-8226 leukemia
SW-620 colon = test system: SW-620 colon
COLO 205 colon = test system: COLO 205 colon
MDA-MB-468 breast = test system: MDA-MB-468 breast
SF-268 CNS = test system: SF-268 CNS
SR leukemia = test system: SR leukemia
MCF7 breast = test system: MCF7 breast
HT29 colon = test system: HT29 colon
HOP-92 NSCLC = test system: HOP-92 NSCLC
U251 glioblastoma = test system: U251 glioblastoma
786-0 renal = test system: 786-0 renal
MOLT-4 leukemia = test system: MOLT-4 leukemia
A549 NSCLC = test system: A549 NSCLC
HCC-2998 colon = test system: HCC-2998 colon
NCI-H23 lung = test system: NCI-H23 lung
SK-MEL-2 melanoma = test system: SK-MEL-2 melanoma
MDA-MB-435 melanoma = test system: MDA-MB-435 melanoma
MALME-3M melanoma = test system: MALME-3M melanoma
NCI-H226 lung = test system: NCI-H226 lung
UACC-62 melanoma = test system: UACC-62 melanoma
MDA-MB-231 breast = test system: MDA-MB-231 breast
CCRF-CEM leukemia = test system: CCRF-CEM leukemia
IGROV1 ovarian = test system: IGROV1 ovarian
PC-3 prostate = test system: PC-3 prostate
NCI-H522 lung = test system: NCI-H522 lung
DU-145 prostate = test system: DU-145 prostate
UACC-257 melanoma = test system: UACC-257 melanoma
NCI/ADR-RES ovarian = test system: NCI/ADR-RES ovarian
ACHN renal = test system: ACHN renal
SNB-75 CNS = test system: SNB-75 CNS
SN12C renal = test system: SN12C renal
OVCAR-3 ovarian = test system: OVCAR-3 ovarian
OVCAR-5 ovarian = test system: OVCAR-5 ovarian
SF-295 CNS = test system: SF-295 CNS
T-47D breast = test system: T-47D breast
KM12 colon = test system: KM12 colon
HL-60(TB) leukemia = test system: HL-60(TB) leukemia
OVCAR-4 ovarian = test system: OVCAR-4 ovarian
NCI-H460 NSCLC = test system: NCI-H460 NSCLC
RXF 393 renal = test system: RXF 393 renal
EKVX NSCLC = test system: EKVX NSCLC
M14 melanoma = test system: M14 melanoma
HCT-15 colon = test system: HCT-15 colon
TK-10 renal = test system: TK-10 renal
SF-539 CNS = test system: SF-539 CNS
SK-OV-3 ovarian = test system: SK-OV-3 ovarian
NCI-H322M lung = test system: NCI-H322M lung
HS 578T breast = test system: HS 578T breast
A498 renal = test system: A498 renal
HOP-62 NSCLC = test system: HOP-62 NSCLC
SK-MEL-28 melanoma = test system: SK-MEL-28 melanoma
BT-549 breast = test system: BT-549 breast

For `CC1(C)CC(O)CC(C)(C)N1O`, the GI50 (CAKI-1 renal) was > 100 µM, the TGI (CAKI-1 renal) was > 100 µM and the GI50 (SNB-19 CNS) was > 100 µM. For the same compound, the TGI (SNB-19 CNS) was > 100 µM, the GI50 (OVCAR-8 ovarian) was > 100 µM and the TGI (OVCAR-8 ovarian) was > 100 µM. The GI50 (SK-MEL-5 melanoma) was > 100 µM, the TGI (SK-MEL-5 melanoma) was > 100 µM and the GI50 (RPMI-8226 leukemia) was > 100 µM. For the same compound, the TGI (RPMI-8226 leukemia) was > 100 µM, the GI50 (SW-620 colon) was > 100 µM and the TGI (SW-620 colon) was > 100 µM. For the same compound, the GI50 (COLO 205 colon) was > 100 µM, the TGI (COLO 205 colon) was > 100 µM and the GI50 (MDA-MB-468 breast) was 29.8 µM. For the same compound, the TGI (MDA-MB-468 breast) was > 100 µM, the GI50 (SF-268 CNS) was > 100 µM and the TGI (SF-268 CNS) was > 100 µM. The GI50 (SR leukemia) was > 100 µM, the TGI (SR leukemia) was > 100 µM and the GI50 (MCF7 breast) was > 100 µM. For the same compound, the TGI (MCF7 breast) was > 100 µM, the GI50 (HT29 colon) was > 100 µM and the TGI (HT29 colon) was > 100 µM. For the same compound, the GI50 (HOP-92 NSCLC) was > 100 µM, the TGI (HOP-92 NSCLC) was > 100 µM and the GI50 (U251 glioblastoma) was > 100 µM. For the same compound, the TGI (U251 glioblastoma) was > 100 µM, the GI50 (786-0 renal) was > 100 µM and the TGI (786-0 renal) was > 100 µM. The GI50 (MOLT-4 leukemia) was 44.5 µM, the TGI (MOLT-4 leukemia) was > 100 µM and the GI50 (A549 NSCLC) was > 100 µM. For the same compound, the TGI (A549 NSCLC) was > 100 µM, the GI50 (HCC-2998 colon) was > 100 µM and the TGI (HCC-2998 colon) was > 100 µM. The GI50 (NCI-H23 lung) was > 100 µM, the TGI (NCI-H23 lung) was > 100 µM and the GI50 (SK-MEL-2 melanoma) was > 100 µM. The TGI (SK-MEL-2 melanoma) was > 100 µM, the GI50 (MDA-MB-435 melanoma) was > 100 µM and the TGI (MDA-MB-435 melanoma) was > 100 µM. The GI50 (MALME-3M melanoma) was > 100 µM, the TGI (MALME-3M melanoma) was > 100 µM and the GI50 (NCI-H226 lung) was > 100 µM. For the same compound, the TGI (NCI-H226 lung) was > 100 µM, the GI50 (UACC-62 melanoma) was > 100 µM and the TGI (UACC-62 melanoma) was > 100 µM. For the same compound, the GI50 (MDA-MB-231 breast) was > 100 µM, the TGI (MDA-MB-231 breast) was > 100 µM and the GI50 (CCRF-CEM leukemia) was 47.2 µM. For the same compound, the TGI (CCRF-CEM leukemia) was > 100 µM, the GI50 (IGROV1 ovarian) was > 100 µM and the TGI (IGROV1 ovarian) was > 100 µM. For the same compound, the GI50 (PC-3 prostate) was > 100 µM, the TGI (PC-3 prostate) was > 100 µM and the GI50 (NCI-H522 lung) was > 100 µM. The TGI (NCI-H522 lung) was > 100 µM, the GI50 (DU-145 prostate) was > 100 µM and the TGI (DU-145 prostate) was > 100 µM. The GI50 (UACC-257 melanoma) was > 100 µM, the TGI (UACC-257 melanoma) was > 100 µM and the GI50 (NCI/ADR-RES ovarian) was > 100 µM. For the same compound, the TGI (NCI/ADR-RES ovarian) was > 100 µM, the GI50 (ACHN renal) was > 100 µM and the TGI (ACHN renal) was > 100 µM. The GI50 (SNB-75 CNS) was > 100 µM, the TGI (SNB-75 CNS) was > 100 µM and the GI50 (SN12C renal) was > 100 µM. The TGI (SN12C renal) was > 100 µM, the GI50 (OVCAR-3 ovarian) was 71.7 µM and the TGI (OVCAR-3 ovarian) was > 100 µM. For the same compound, the GI50 (OVCAR-5 ovarian) was > 100 µM, the TGI (OVCAR-5 ovarian) was > 100 µM and the GI50 (SF-295 CNS) was > 100 µM. The TGI (SF-295 CNS) was > 100 µM, the GI50 (T-47D breast) was > 100 µM and the TGI (T-47D breast) was > 100 µM. For the same compound, the GI50 (KM12 colon) was > 100 µM, the TGI (KM12 colon) was > 100 µM and the GI50 (HL-60(TB) leukemia) was > 100 µM. For the same compound, the TGI (HL-60(TB) leukemia) was > 100 µM, the GI50 (OVCAR-4 ovarian) was 19.9 µM and the TGI (OVCAR-4 ovarian) was > 100 µM. The GI50 (NCI-H460 NSCLC) was > 100 µM, the TGI (NCI-H460 NSCLC) was > 100 µM and the GI50 (RXF 393 renal) was > 100 µM. For the same compound, the TGI (RXF 393 renal) was > 100 µM, the GI50 (EKVX NSCLC) was > 100 µM and the TGI (EKVX NSCLC) was > 100 µM. For the same compound, the GI50 (M14 melanoma) was > 100 µM, the TGI (M14 melanoma) was > 100 µM and the GI50 (HCT-15 colon) was > 100 µM. For the same compound, the TGI (HCT-15 colon) was > 100 µM, the GI50 (TK-10 renal) was > 100 µM and the TGI (TK-10 renal) was > 100 µM. For the same compound, the GI50 (SF-539 CNS) was > 100 µM, the TGI (SF-539 CNS) was > 100 µM and the GI50 (SK-OV-3 ovarian) was > 100 µM. The TGI (SK-OV-3 ovarian) was > 100 µM, the GI50 (NCI-H322M lung) was > 100 µM and the TGI (NCI-H322M lung) was > 100 µM. For the same compound, the GI50 (HS 578T breast) was > 100 µM, the TGI (HS 578T breast) was > 100 µM and the GI50 (A498 renal) was > 100 µM. For the same compound, the TGI (A498 renal) was > 100 µM, the GI50 (HOP-62 NSCLC) was > 100 µM and the TGI (HOP-62 NSCLC) was > 100 µM. The GI50 (SK-MEL-28 melanoma) was > 100 µM, the TGI (SK-MEL-28 melanoma) was > 100 µM and the GI50 (BT-549 breast) was > 100 µM. For the same compound, the TGI (BT-549 breast) was > 100 µM.
